Key:
[1] = very low solubility in water, high lipophilicity; cited from earlier work
[2] = Saturated solubility of CBD (HPLC); assay type: physicochemical; conditions: formulations containing PLURONIC F127 from 7% to 11%, excess CBD stirred overnight at room temperature, filtered 0.45 μm
Method: To determine the saturated solubility of CBD in the presence of PLURONIC® F127, PLURONIC® formulations were made as above. To each formulation excess CBD was added and left stirring overnight on a magnetic stirrer at room temperature (FIG. 17). To see how addition of lipids affects saturated solubility, lipids were added to 5% PLURONIC® F127 containing excess CBD using the ethanol injection method. For this, a 19G needle was immersed into the formulation being stirred, and 8.11% (volume of sample end volume) of the lipid stock formulation was injected at the rate of 750 μl/7 sec. Each formulation at this point was then left stirring overnight as above. On the following day, the formulations were filtered using 0.45 μm syringe filters and the amount of CBD dissolved was quantified using high pressure liquid chromatography.
CBD content was determined by diluting the samples in acetonitrile (ACN) (as needed) and then analysing them using HPLC. Calibration curve and sample quantification was carried out using an Agilent Infinity 1260 system. An Eclipse Plus C18, 4.6×150 mm, 3.5 μm column was purchased from […]. The mobile phase used was ACN:Water (82:18 v/v). HPLC analysis was carried at room temperature at a flow rate of 1 ml/min and an injection volume of 20 μl. […] Particle size and polydispersity was determined using a Brookhaven dynamic light scattering system.

In the case of `C=C(C)[C@@H]1CCC(C)=C[C@H]1c1c(O)cc(CCCCC)cc1O` [CBD, cannabidiol], the “Biopharmaceutical Classification System (BCS) classification” value [1] is given as “class 2” and the “peak CBD concentration (saturated solubility)” value [2] is given as “approximately 2 % w/v”.

Reference: patent US12576039B2, “Lipid-polymer compositions and methods of use” (Max Biology Co. Ltd., priority 2020, dated 2026)
